Data on 41 compounds can be found in patent publication US20230000869A1, “NOVEL ALK2 INHIBITORS AND METHODS FOR INHIBITING BMP SIGNALING” (The Brigham and Women's Hospital, Inc., priority 2017, published 2023).

One assay concerns the target T1, ALK2 (Mus musculus, UniProt P37172).
T1 construct: endogenous in cells; host or cells: C2C12-BRE (BRE-Luc reporter line, G418 selection)
T1 sequence (P37172 21-509): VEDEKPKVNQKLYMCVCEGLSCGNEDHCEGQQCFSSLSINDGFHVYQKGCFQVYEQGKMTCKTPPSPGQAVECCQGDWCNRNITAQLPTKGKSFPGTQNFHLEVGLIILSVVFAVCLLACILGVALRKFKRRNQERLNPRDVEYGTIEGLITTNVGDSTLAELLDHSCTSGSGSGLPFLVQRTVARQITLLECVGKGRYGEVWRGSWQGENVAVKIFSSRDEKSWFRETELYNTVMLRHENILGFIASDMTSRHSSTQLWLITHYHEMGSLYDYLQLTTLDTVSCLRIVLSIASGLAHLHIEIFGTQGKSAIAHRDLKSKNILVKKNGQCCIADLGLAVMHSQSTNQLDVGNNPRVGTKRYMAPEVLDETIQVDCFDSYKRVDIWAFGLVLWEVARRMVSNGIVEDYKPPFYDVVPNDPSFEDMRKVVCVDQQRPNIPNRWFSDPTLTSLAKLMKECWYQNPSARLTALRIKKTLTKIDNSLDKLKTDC
The assay is described as follows: Luciferase reporter gene assay for ALK2 activity (C2C12 BRE-Luc SMAD1/5/8 reporter, BMP6 agonist). In kind it is cell-based. The settings on record: BMP6 50 ng/mL. How it is done: (§1) All cell lines were cultured in DMEM, supplemented with […] and 1% Pen/Strep. All media reagents were obtained from Gibco. BMP6, BMP9, and TGFβ were obtained from R&D Systems. C2C12-BRE and HEK293T-SBE were kept in selection with 400 ug/mL G418 from Invivogen.
(§2) In this reporter gene cell based ALK2 and TGFβ assay, the C2C12 cell line was employed for the measurement of ALK2 activity, using a BRE-Luc SMAD1/5/8 reporter and BMP6 as the agonist. The HEK293T cell line was employed to measure TGFβ activity, using a SBE-Luc SMAD2/3 reporter and TGFβ as the agonist. Luciferase reporter assays were read using Promega Steady-Glo Luciferase Assay System.
(§3) Cells were plated in 96 well white clear bottom assay plates at 10 k cells/well for C2C12-BRE, 15 k cells/well for HEK293-SBE in DMEM containing 2% FBS 1% P/S. Cells were given a minimum of 4 hours in incubator at 37° C./5% CO2 to adhere prior to further treatment. Compounds were diluted in DMSO to a 10-point dilution curve and added to the plate to reach the following final concentrations: 10000, 3000, 1000, 300, 100, and 30 nM in the HEK293-SBE assay and 1000, 300, 100, 30, 10, 3, 1, 0.3 nM in the C2C12-BRE assay. Negative and positive control wells received 2 μL DMSO as vehicle treatment. Plates were returned to incubator for 45 minutes and then BMP6 and TGFB were added to a final concentration of 50 ng/mL and 5 ng/mL, respectively. Plates were returned to the incubator and left overnight. After a minimum of 18 hours post BMP6/TGFβ addition, the plates were read using Promega Steady-Glo Luciferase Assay System. A 1:1 mixture of prepared steady-glo and phenol free DMEM was prepared, and 50 μL/well was added to the assay plates whose media had been flicked off. Plates were given 10 minutes post steady-glo addition before luminescence was read on a Spectramax M5e microplate reader. Negative control wells were averaged and subtracted from all other wells on the plate. Inhibition was calculated as the percent of signal loss compared to the averaged positive control wells.

Another assay relates to TGFβ. The assay is described as follows: Luciferase reporter gene assay for TGFβ activity (HEK293T SBE-Luc SMAD2/3 reporter, TGFβ agonist). Format: cell-based. The settings on record: Homo sapiens, HEK-293T, TGFβ 5 ng/mL. The procedure: as §1, §2, §3

In the case of `COc1cc2c(-c3cnn4cc(N5CCC(N6CCNCC6)CC5)cnc34)ccnc2cc1F` [Compound 39, 7-fluoro-6-methoxy-4-[6-(4-piperazin-1-yl-1-piperidyl)pyrazolo[1,5-a]pyrimidin-3-yl]quinoline], the IC50 on ALK2 was 11 nM; in the assay with TGFβ, 69 nM.

`CCN1CCN(C2CCN(c3cnc4c(-c5ccnc6cc(F)c(OC)cc56)cnn4c3)CC2)CC1` [Compound 40]: the IC50 on ALK2 was 114 nM; with TGFβ, 327 nM.

In the case of `COc1cc2c(-c3cnn4cc(N5CCC(N6CCN(C)C(C)C6)CC5)cnc34)ccnc2cc1F` (stereo not shown) [Compound 41], the values for the IC50 at ALK2 and in the assay with TGFβ were 236 nM and 1230 nM, respectively.

On to `COc1cc2c(-c3cnn4cc(N5CCC(N6CCCN(C)CC6)CC5)cnc34)ccnc2cc1F` [Compound 42], for which the IC50 on ALK2 was 9 nM; with TGFβ, 59 nM.

As for `COc1cc2c(-c3cnn4cc(N5CCC(N6CC[N+](C)([O-])CC6)CC5)cnc34)ccnc2cc1F` [Compound 43], the IC50 at ALK2 amounted to 631 nM; in the assay on TGFβ it was 1920 nM.

In the case of `COc1cc2c(-c3cnn4cc(N5CCC(N6CC[N+](C)(C)CC6)CC5)cnc34)ccnc2cc1F` [Compound 44], the IC50 on ALK2 was more than 3000 nM; with TGFβ, 210 nM.

For the compound `[2H]C([2H])([2H])N1CCN(C2CCN(c3cnc4c(-c5ccnc6cc(F)c(OC)cc56)cnn4c3)CC2)CC1` [Compound 45], the IC50 on ALK2 is 24 nM; in the assay with TGFβ, 376 nM.

As for `COc1cc2c(-c3cnn4cc(N5CCC(N6CCS(=O)(=O)CC6)CC5)cnc34)ccnc2cc1F` [Compound 46], the IC50 at ALK2 was found to be 108 nM; in the assay with TGFβ, 454 nM.

As to `COc1cc2c(-c3cnn4cc(N5CCC(N6CCN(C)CC6)C(F)C5)cnc34)ccnc2cc1F` (stereo not shown) [Compound 47], the IC50 on ALK2 was 76 nM; in the assay with TGFβ it was 483 nM.

Take `COc1cc2c(-c3cnn4cc(N5CCC(N6CCN(C)CC6)C5)cnc34)ccnc2cc1F` (stereo not shown) [Compound 48]: the IC50 stood at 50 nM at ALK2 and 914 nM in the assay on TGFβ.

On to `COc1cc2c(-c3cnn4cc(N5CC(N6CCN(C)CC6)C5)cnc34)ccnc2cc1F` [Compound 49], for which the IC50 at ALK2 turned out to be 11 nM; with TGFβ, 631 nM.

For the compound `COc1cc2c(-c3cnn4cc(N5CCC(N6CCC(C)(N)CC6)CC5)cnc34)ccnc2cc1F` [Compound 51], the figures for the IC50 at ALK2 and in the assay on TGFβ were 60 nM and 410 nM, respectively.

Consider `COc1cc2c(-c3cnn4cc(N5CCC(N6CC7CCC(C6)N7)CC5)cnc34)ccnc2cc1F` [Compound 52], for which the 50% inhibitory concentration (IC50) on ALK2 worked out at 29 nM; with TGFβ, 358 nM.

In the case of `COc1cc2c(-c3cnn4cc(N5CCC(N6CC7CCC(C6)N7C)CC5)cnc34)ccnc2cc1F` [Compound 53], the IC50 on ALK2 is 9 nM; in the assay on TGFβ it was 198 nM.

On to `COc1cc2c(-c3cnn4cc(N5CCC(N6C[C@H]7C[C@@H]6CN7)CC5)cnc34)ccnc2cc1F` [Compound 54], for which the 50% inhibitory concentration (IC50) at ALK2 stood at 71 nM; in the assay on TGFβ it was 539 nM.

Take `COc1cc2c(-c3cnn4cc(N5CCC(N6C[C@H]7C[C@@H]6CN7C)CC5)cnc34)ccnc2cc1F` [Compound 55]: the IC50 on ALK2 is 9 nM; with TGFβ, 268 nM.

Turning to `COc1cc2c(-c3cnn4cc(N5CCC(C)(N6CCN(C)CC6)CC5)cnc34)ccnc2cc1F` [Compound 57], the IC50 on ALK2 was 207 nM; in the assay on TGFβ, more than 1000 nM.

As to `COc1cc2c(-c3cnn4cc(N5CCC(N6CCN(C)CC6C)CC5)cnc34)ccnc2cc1F` (stereo not shown) [Compound 58, 4-[6-[4-(2,4-dimethylpiperazin-1-yl)-1-piperidyl]pyrazolo[1,5-a]pyrimidin-3-yl]-7-fluoro-6-methoxy-quinoline], the IC50 was determined as 377 nM on ALK2 and 970 nM with TGFβ.

As for `COc1ccc2nccc(-c3cnn4cc(N5CCC(N6CCN(C)CC6)CC5)cnc34)c2n1` [Compound 60, 2-methoxy-8-[6-[4-(4-methylpiperazin-1-yl)-1-piperidyl]pyrazolo[1,5-a]pyrimidin-3-yl]-1,5-naphthyridine], the IC50 at ALK2 is 42 nM; with TGFβ, more than 3000 nM.

As to `COc1cc2c(-c3cnn4cc(N5CCC(N6CCN(C)CC6)C(C)C5)cnc34)ccnc2cc1F` (stereo not shown) [Compound 61], the IC50 on ALK2 is more than 1000 nM; with TGFβ, more than 3000 nM.

Consider `Cc1cc(-c2cnn3cc(N4CCC(N5CCCN(C)CC5)CC4)cnc23)c2ccccc2n1` [Compound 62], for which the concentration for half-maximal inhibition (IC50) was 90 nM on ALK2 and 37 nM with TGFβ.

In the case of `CN1CCN(C2CCN(c3cnc4c(-c5cccc(S(C)(=O)=O)c5)cnn4c3)CC2)CC1` [Compound 63], the IC50 at ALK2 is 977 nM; in the assay on TGFβ it was 6830 nM.

For the compound `CN1CCN(C2CCN(c3cnc4c(-c5cccc(P(C)(C)=O)c5)cnn4c3)CC2)CC1` [Compound 64], the concentration for half-maximal inhibition (IC50) is 28 nM at ALK2 and more than 3000 nM in the assay with TGFβ.

As to `CC(=O)N1CCC(N2CCN(c3cnc4c(-c5ccnc6ccccc56)cnn4c3)CC2)CC1` [Compound 81], the IC50 on ALK2 and in the assay on TGFβ was more than 3000 nM each time.

As for `Cc1ccc2nccc(-c3cnn4cc(N5CCC(N6CCN(C)CC6)CC5)cnc34)c2c1` [Compound 185], the results for the IC50 on ALK2 and in the assay with TGFβ were 22 nM and 514 nM, respectively.

As to `COc1cc2c(-c3cnn4cc(N5CCC(N)CC5)cnc34)ccnc2cc1F` [Compound 186], the IC50 at ALK2 was 57 nM; in the assay with TGFβ it was 370 nM.

As for `Cc1cc(-c2cnn3cc(N4CCC(N)CC4)cnc23)c2ccccc2n1` [Compound 187], the figures for the concentration for half-maximal inhibition (IC50) at ALK2 and in the assay on TGFβ were 37 nM and 32 nM, respectively.

`COc1cc2c(-c3cnn4cc(N5CCC(N(C)C)CC5)cnc34)ccnc2cc1F` [Compound 188]: the figures for the IC50 on ALK2 and with TGFβ were 50 nM and 126 nM, respectively.

On to `Cc1cc(-c2cnn3cc(N4CCC(N(C)C)CC4)cnc23)c2ccccc2n1` [Compound 189], for which the 50% inhibitory concentration (IC50) is 137 nM on ALK2 and 92 nM in the assay with TGFβ.

As to `COc1cc2c(-c3cnn4cc(N5CCC(N6CCC(N(C)C)C6)CC5)cnc34)ccnc2cc1F` (stereo not shown) [Compound 190], the IC50 amounted to 31 nM on ALK2 and 128 nM in the assay on TGFβ.

With `COc1cc2c(-c3cnn4cc(N5CCOCC5)cnc34)ccnc2cc1F` [Compound 192], the figures for the IC50 at ALK2 and in the assay with TGFβ were 89 nM and 184 nM, respectively.

Take `COc1cc2c(-c3cnn4cc(N5CC(N6CCOCC6)C5)cnc34)ccnc2cc1F` [Compound 193]: the IC50 at ALK2 is 118 nM; with TGFβ it was 449 nM.

With `Cc1cc(-c2cnn3cc(N4CC(N5CCOCC5)C4)cnc23)c2ccccc2n1` [Compound 194], the figures for the IC50 at ALK2 and with TGFβ were 221 nM and 138 nM, respectively.

Regarding `COc1cc2c(-c3cnn4cc(N5CCN(C)CC5)cnc34)ccnc2cc1F` [Compound 195], the values for the half-maximal inhibitory concentration (IC50) at ALK2 and with TGFβ were 298 nM and 286 nM, respectively.

Consider `Cc1cc(-c2cnn3cc(N4CCN(C)CC4)cnc23)c2ccccc2n1` [Compound 196], for which the IC50 at ALK2 is 935 nM; with TGFβ, 126 nM.

For the compound `Cc1cc(-c2cnn3cc(N4CCOCC4)cnc23)c2ccccc2n1` [Compound 197], the IC50 at ALK2 amounted to 395 nM; with TGFβ it was 623 nM.

Take `Cc1cc(-c2cnn3cc(N4CCN(CC(C)(C)O)CC4)cnc23)c2ccccc2n1` [Compound 198]: the values for the IC50 at ALK2 and with TGFβ were 300 nM and 283 nM, respectively.

In the case of `COc1cc2c(-c3cnn4cc(N5CCN(C6CN(C)C6)CC5)cnc34)ccnc2cc1F` [Compound 199], the IC50 is 23 nM on ALK2 and 498 nM in the assay on TGFβ.

With `COc1cc2c(-c3cnn4cc(N5CCN(CC(C)(C)O)CC5)cnc34)ccnc2cc1F` [Compound 200], the values for the half-inhibitory concentration (IC50) at ALK2 and with TGFβ were 94 nM and 324 nM, respectively.

In the case of `COc1cc2c(-c3cnn4cc(N5CC(CC#N)(N6CCN(C)CC6)C5)cnc34)ccnc2cc1F` [Compound 201], the IC50 worked out at 13 nM on ALK2 and 327 nM in the assay on TGFβ.

On to `COc1cc2c(-c3cnn4cc(N5CCN(c6ccncc6)CC5)cnc34)ccnc2cc1F` [Compound 202], for which the IC50 was determined as 507 nM on ALK2 and 359 nM with TGFβ.
